Test results from patent US9247759B2, “Identification of human T2R receptors that respond to bitter compounds that elicit the bitter taste in compositions, and the use thereof in assays to identify compounds that inhibit (block) bitter taste in compositions and use thereof” (SENOMYX, INC., priority 2007, dated 2016).
Read-outs that look alike come from different tables or passages of the source.

Assays:
hT2R4 = hT2R4 (Homo sapiens (Human), UniProt Q9NYW5); assay: hT2R panel inhibition, transient HEK293 G16g44, agonist Chloroquine pH6.5 5 mM; type: cell-based; settings: HEK293, compound at 25 μM; receptor activated to EC80 with the corresponding agonist; class symbols; read-out: screening result against bitter receptor 4
hT2R4, sequence (Q9NYW5 whole entry): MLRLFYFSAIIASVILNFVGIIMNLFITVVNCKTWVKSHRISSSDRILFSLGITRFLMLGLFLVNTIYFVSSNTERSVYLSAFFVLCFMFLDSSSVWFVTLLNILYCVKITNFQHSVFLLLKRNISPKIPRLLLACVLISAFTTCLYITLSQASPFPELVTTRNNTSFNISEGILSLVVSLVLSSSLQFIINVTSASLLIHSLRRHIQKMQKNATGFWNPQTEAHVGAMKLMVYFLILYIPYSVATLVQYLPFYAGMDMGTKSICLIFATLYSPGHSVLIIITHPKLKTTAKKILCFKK
In short: (§1)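 Cells stably bearing the promiscuous G protein received one human T2R each by transient transfection and were assayed functionally. Ligands used at EC80; the test compound's inhibition equals the lowered activity.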

hT2R10 = hT2R10 (Homo sapiens (Human), UniProt Q9NYW0); assay: hT2R panel inhibition, transient HEK293 G16g44, agonist Strychnine 50 μM; type: cell-based; settings: HEK293, read-out: screening result against bitter receptor 10, compound at 25 μM; receptor activated to EC80 with the corresponding agonist
hT2R10, sequence (Q9NYW0 whole entry): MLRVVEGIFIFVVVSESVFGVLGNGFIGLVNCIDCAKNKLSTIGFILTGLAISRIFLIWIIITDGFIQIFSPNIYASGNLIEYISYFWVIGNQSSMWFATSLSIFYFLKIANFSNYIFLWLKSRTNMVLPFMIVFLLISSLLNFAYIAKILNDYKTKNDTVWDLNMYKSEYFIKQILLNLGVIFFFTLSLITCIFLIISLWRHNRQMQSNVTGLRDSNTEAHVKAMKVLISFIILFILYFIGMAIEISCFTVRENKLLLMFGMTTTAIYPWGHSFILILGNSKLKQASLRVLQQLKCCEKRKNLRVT

hT2R75 = hT2R75 (Homo sapiens (Human), UniProt P59540); assay: hT2R panel inhibition, transient HEK293 G16g44, agonist Strychnine 1 μM; type: cell-based; settings: HEK293, read-out: screening result against bitter receptor 75, compound at 25 μM; receptor activated to EC80 with the corresponding agonist
hT2R75, sequence (P59540 whole entry): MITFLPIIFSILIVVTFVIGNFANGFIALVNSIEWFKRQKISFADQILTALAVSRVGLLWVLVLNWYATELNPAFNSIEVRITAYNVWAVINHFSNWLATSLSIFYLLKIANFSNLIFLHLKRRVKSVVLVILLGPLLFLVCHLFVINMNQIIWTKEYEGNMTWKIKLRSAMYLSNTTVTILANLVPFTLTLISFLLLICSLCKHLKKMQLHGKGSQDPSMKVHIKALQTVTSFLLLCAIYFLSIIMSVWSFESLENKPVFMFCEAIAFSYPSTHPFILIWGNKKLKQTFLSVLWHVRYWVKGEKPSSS

hT2R64 = hT2R64 (Homo sapiens (Human), UniProt P59538); assay: hT2R panel inhibition, transient HEK293 G16g44, agonist Aristolochic Acid 1 μM; type: cell-based; settings: HEK293, compound at 25 μM; receptor activated to EC80 with the corresponding agonist; read-out: screening result against bitter receptor 64
hT2R64, sequence (P59538 whole entry): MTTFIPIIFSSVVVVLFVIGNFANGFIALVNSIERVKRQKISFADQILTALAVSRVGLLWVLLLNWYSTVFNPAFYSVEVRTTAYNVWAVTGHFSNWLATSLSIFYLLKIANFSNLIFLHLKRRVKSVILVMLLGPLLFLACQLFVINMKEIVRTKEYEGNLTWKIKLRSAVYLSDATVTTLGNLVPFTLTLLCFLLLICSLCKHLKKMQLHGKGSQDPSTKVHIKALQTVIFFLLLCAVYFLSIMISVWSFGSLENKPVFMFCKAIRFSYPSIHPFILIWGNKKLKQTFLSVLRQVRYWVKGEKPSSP
In short: as §1

hT2R71 = hT2R71 (Homo sapiens (Human), UniProt P59536); assay: hT2R panel inhibition, transient HEK293 G16g44, agonist Picric Acid 10 μM; type: cell-based; settings: HEK293, compound at 25 μM; receptor activated to EC80 with the corresponding agonist; read-out: screening result against bitter receptor 71
hT2R71, sequence (P59536 whole entry): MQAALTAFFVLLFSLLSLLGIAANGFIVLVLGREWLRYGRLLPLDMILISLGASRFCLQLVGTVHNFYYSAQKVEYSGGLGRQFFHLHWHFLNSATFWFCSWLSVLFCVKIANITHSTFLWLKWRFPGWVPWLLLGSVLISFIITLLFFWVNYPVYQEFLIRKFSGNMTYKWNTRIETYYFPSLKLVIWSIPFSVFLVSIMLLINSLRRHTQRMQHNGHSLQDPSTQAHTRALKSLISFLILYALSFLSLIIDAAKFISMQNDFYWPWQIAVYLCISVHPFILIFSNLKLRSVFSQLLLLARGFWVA
In short: as §1

hT2R65 = assay: hT2R panel inhibition, transient HEK293 G16g44, agonist Oleuropein 1 mM; type: cell-based, human; settings: compound at 25 μM; receptor activated to EC80 with the corresponding agonist
In short: as §1

hT2R14 [1] = biological target: T1, hT2R14 (Homo sapiens (Human), UniProt Q9NYV8); assay: hT2R panel inhibition, transient HEK293 G16g44, agonist Aristolochic Acid 2 μM; type: cell-based; settings: HEK293, compound at 25 μM; receptor activated to EC80 with the corresponding agonist; read-out: screening result against bitter receptor 14
T1 sequence (Q9NYV8 whole entry): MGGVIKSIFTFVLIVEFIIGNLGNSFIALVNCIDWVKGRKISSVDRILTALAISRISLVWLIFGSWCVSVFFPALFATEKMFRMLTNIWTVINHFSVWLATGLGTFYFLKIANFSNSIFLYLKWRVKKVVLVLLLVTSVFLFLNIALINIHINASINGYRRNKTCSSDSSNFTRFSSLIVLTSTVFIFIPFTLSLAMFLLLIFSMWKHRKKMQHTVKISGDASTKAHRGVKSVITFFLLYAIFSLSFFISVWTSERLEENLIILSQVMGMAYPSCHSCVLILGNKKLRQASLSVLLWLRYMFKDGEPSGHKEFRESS
In short: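 Agonist challenge was at EC80, with 0.5 mM andrographolide on hT2R8 and 2 μM aristolochic acid on hT2R14. Inhibition was measured in functional assays in HEK293 cells that stably carry the promiscuous G protein G16g44 and were transiently transfected with the individual receptor.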

hT2R3 = hT2R3 (Homo sapiens (Human), UniProt Q9NYW6); assay: hT2R panel inhibition, transient HEK293 G16g44, agonist Chloroquine pH6.5 50 μM; type: cell-based; settings: HEK293, compound at 25 μM; receptor activated to EC80 with the corresponding agonist; read-out: screening result against bitter receptor 3
hT2R3, sequence (Q9NYW6 whole entry): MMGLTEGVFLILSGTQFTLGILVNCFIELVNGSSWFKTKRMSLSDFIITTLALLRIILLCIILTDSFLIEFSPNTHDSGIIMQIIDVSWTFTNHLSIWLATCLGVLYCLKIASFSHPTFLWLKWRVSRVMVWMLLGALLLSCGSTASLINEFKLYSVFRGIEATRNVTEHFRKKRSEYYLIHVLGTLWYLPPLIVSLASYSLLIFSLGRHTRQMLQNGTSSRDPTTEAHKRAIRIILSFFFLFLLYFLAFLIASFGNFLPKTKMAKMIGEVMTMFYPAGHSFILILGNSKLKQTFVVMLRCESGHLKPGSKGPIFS
In short: as §1

hT2R61 = hT2R61 (Homo sapiens (Human), UniProt P59537); assay: hT2R panel inhibition, transient HEK293 G16g44, agonist Aristolochic Acid 25 nM; type: cell-based; settings: HEK293, compound at 25 μM; receptor activated to EC80 with the corresponding agonist; read-out: screening result against bitter receptor 61
hT2R61, sequence (P59537 whole entry): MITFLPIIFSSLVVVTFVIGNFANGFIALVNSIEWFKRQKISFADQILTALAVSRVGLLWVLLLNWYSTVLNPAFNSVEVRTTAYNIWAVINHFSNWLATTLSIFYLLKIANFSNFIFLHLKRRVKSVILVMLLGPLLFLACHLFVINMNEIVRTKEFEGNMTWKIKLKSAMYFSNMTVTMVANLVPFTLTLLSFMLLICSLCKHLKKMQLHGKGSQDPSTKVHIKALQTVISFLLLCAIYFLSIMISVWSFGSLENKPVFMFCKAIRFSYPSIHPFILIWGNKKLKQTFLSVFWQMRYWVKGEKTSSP
In short: as §1

hT2R51 = hT2R51 (Homo sapiens (Human), UniProt P59533); assay: hT2R panel inhibition, transient HEK293 G16g44, agonist Prop 2.5 μM; type: cell-based; settings: HEK293, compound at 25 μM; receptor activated to EC80 with the corresponding agonist; read-out: screening result against bitter receptor 51
hT2R51, sequence (P59533 whole entry): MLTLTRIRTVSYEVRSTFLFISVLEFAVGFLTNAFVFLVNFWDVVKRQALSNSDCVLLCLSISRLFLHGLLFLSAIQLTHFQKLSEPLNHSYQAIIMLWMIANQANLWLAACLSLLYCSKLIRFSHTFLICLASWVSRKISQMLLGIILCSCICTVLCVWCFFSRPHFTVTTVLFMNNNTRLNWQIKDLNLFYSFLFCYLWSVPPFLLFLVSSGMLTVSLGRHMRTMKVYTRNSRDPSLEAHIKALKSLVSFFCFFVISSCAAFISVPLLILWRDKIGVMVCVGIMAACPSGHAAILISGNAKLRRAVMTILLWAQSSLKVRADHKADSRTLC
In short: as §1

hT2R16 = hT2R16 (Homo sapiens (Human), UniProt Q9NYV7); assay: hT2R panel inhibition, transient HEK293 G16g44, agonist Salicin 1 mM; type: cell-based; settings: HEK293, compound at 25 μM; receptor activated to EC80 with the corresponding agonist; read-out: screening result against bitter receptor 16
hT2R16, sequence (Q9NYV7 whole entry): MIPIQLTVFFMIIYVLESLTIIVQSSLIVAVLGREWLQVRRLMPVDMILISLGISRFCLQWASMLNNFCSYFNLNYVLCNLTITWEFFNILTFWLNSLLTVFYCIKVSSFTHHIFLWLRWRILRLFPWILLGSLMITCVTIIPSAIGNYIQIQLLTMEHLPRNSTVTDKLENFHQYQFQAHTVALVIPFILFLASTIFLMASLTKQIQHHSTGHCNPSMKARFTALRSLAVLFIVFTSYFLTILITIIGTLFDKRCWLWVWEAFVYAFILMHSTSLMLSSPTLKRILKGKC
In short: as §1

hT2R55 = assay: hT2R panel inhibition, transient HEK293 G16g44, agonist Cinchonine 150 μM; type: cell-based, human; settings: compound at 25 μM; receptor activated to EC80 with the corresponding agonist
In short: as §1

hT2R7 = hT2R7 (Homo sapiens (Human), UniProt Q9NYW3); assay: hT2R panel inhibition, transient HEK293 G16g44, agonist Chloroquine pH6.5 10 mM; type: cell-based; settings: HEK293, compound at 25 μM; receptor activated to EC80 with the corresponding agonist; read-out: screening result against bitter receptor 7
hT2R7, sequence (Q9NYW3 whole entry): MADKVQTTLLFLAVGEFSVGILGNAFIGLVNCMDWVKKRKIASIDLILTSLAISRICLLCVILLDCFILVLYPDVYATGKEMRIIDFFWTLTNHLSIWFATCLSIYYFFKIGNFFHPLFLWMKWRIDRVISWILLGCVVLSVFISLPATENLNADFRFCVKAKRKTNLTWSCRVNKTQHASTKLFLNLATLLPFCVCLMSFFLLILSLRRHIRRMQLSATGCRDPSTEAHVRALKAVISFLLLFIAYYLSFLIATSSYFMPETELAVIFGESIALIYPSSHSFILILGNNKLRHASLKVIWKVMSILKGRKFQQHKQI
In short: as §1

hT2R14 [2] = biological target: T1, hT2R14; assay: hT2R14 antagonist high-throughput FLIPR assay, stable cell line with G16g44, agonist aristolochic acid; type: cell-based
In short: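 Compounds were co-applied with 3 μM aristolochic acid, a dose set to reach 70-80% of maximal hT2R14 activation. Read-out was FLIPR fluorescence in a stable HEK293 line co-expressing hT2R14 and G16g44.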

hT2R63 = assay: hT2R panel inhibition, transient HEK293 G16g44, agonist Caffeine 1 mM or Andrographolide 100 μM; type: cell-based, human; settings: compound at 25 μM; receptor activated to EC80 with the corresponding agonist
In short: as §1

hT2R54 = assay: hT2R panel inhibition, transient HEK293 G16g44, agonist Ranitidine 5 mM; type: cell-based, human; settings: compound at 25 μM; receptor activated to EC80 with the corresponding agonist
In short: as §1

hT2R44 = assay: hT2R panel inhibition, transient HEK293 G16g44, agonist Denatonium 0.5 μM; type: cell-based, human; settings: compound at 25 μM; receptor activated to EC80 with the corresponding agonist
In short: as §1

hT2R5 = hT2R5 (Homo sapiens (Human), UniProt Q9NYW4); assay: hT2R panel inhibition, transient HEK293 G16g44, agonist Picoline 10 mM; type: cell-based; settings: HEK293, compound at 25 μM; receptor activated to EC80 with the corresponding agonist; read-out: screening result against bitter receptor 5
hT2R5, sequence (Q9NYW4 whole entry): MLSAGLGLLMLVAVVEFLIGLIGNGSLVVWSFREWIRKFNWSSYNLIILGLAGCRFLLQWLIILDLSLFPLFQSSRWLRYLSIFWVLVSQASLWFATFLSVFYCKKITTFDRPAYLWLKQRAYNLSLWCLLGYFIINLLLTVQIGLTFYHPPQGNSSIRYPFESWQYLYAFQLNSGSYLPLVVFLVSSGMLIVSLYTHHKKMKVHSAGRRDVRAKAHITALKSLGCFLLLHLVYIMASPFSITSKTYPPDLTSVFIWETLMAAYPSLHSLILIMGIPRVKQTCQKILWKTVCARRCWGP
In short: as §1

hT2R67 = assay: hT2R panel inhibition, transient HEK293 G16g44, agonist Andrographolide 5 μM; type: cell-based, human; settings: compound at 25 μM; receptor activated to EC80 with the corresponding agonist
In short: as §1

[3] = read-out: IC50 on hT2R14 bitter receptor

Row | Structure (SMILES) | inhibition at 25 µM (hT2R4) [%] | inhibition at 25 µM (hT2R10) [%] | inhibition at 25 µM (hT2R75) [%] | inhibition at 25 µM (hT2R64) [%] | inhibition at 25 µM (hT2R71) [%] | screening result against bitter receptor 65 (hT2R65) | inhibition at 25 µM (hT2R14 [1]) [%] | inhibition at 25 µM (hT2R3) [%] | inhibition at 25 µM (hT2R61) [%] | inhibition at 25 µM (hT2R51) [%] | inhibition at 25 µM (hT2R16) [%] | screening result against bitter receptor 55 (hT2R55) | inhibition at 25 µM (hT2R7) [%] | IC50 (hT2R14 [2]; [3]) [nM] | screening result against bitter receptor 63 (hT2R63) | screening result against bitter receptor 54 (hT2R54) | screening result against bitter receptor 44 (hT2R44) | inhibition at 25 µM (hT2R5) [%] | screening result against bitter receptor 67 (hT2R67) | IC50 (hT2R14 [2]; Table C, read-out: hT2R14 IC50) [nM]
1 | COc1cccc(CN(Cc2ccco2)S(=O)(=O)c2ccc(C(=O)O)cc2)c1 [Example 5-6, 4-(N-(furan-2-ylmethyl)-N-(3-methoxybenzyl)sulfamoyl)benzoic acid] | 20 to 40 | 40 to 60 | 20 to 40 | > 80 | 40 to 60 | + (20% to 40% inhibition = +) | > 80 | 20 to 40 | > 80 | 40 to 60 | 20 to 40 | ++++ (80% or greater inhibition = ++++) | 20 to 40 | 10000 | ++++ (80% or greater inhibition = ++++) | + (20% to 40% inhibition = +) | ++ (40% to 60% inhibition = ++) | – | – | –
2 | CCCOc1ccc(CN(Cc2ccco2)S(=O)(=O)c2ccc(C(=O)O)cc2)cc1 [Example 5-8, 4-(N-(4-propoxybenzyl)-N-(furan-2-ylmethyl)sulfamoyl)benzoic acid] | 40 to 60 | 40 to 60 | 20 to 40 | > 80 | 40 to 60 | ++ (40% to 60% inhibition = ++) | > 80 | 20 to 40 | 60 to 80 | 40 to 60 | 20 to 40 | ++++ (80% or greater inhibition = ++++) | – | 2500 | ++ (40% to 60% inhibition = ++) | + (20% to 40% inhibition = +) | ++ (40% to 60% inhibition = ++) | – | – | –
3 | COc1ccc(CN(Cc2ccc(C(=O)O)cc2)S(=O)(=O)c2ccccc2)cc1 [Example 5-102, 4-((N-(4-methoxybenzyl)phenylsulfonamido)methyl) benzoic acid] | 40 to 60 | 20 to 40 | 20 to 40 | 60 to 80 | 60 to 80 | ++ (40% to 60% inhibition = ++) | > 80 | 40 to 60 | > 80 | 20 to 40 | 20 to 40 | ++++ (80% or greater inhibition = ++++) | 40 to 60 | – | + (20% to 40% inhibition = +) | + (20% to 40% inhibition = +) | +++ (60% to 80% inhibition = +++) | 20 to 40 | + (20% to 40% inhibition = +) | 2220
4 | O=C(O)c1ccc(CN(Cc2ccccc2F)S(=O)(=O)c2ccccc2)cc1 [Example 5-103, 4-((N-(2-fluorobenzyl)phenylsulfonamido)methyl)-benzoic acid] | 40 to 60 | 20 to 40 | 20 to 40 | > 80 | > 80 | ++ (40% to 60% inhibition = ++) | > 80 | 40 to 60 | > 80 | 20 to 40 | 20 to 40 | ++++ (80% or greater inhibition = ++++) | 20 to 40 | – | ++ (40% to 60% inhibition = ++) | ++ (40% to 60% inhibition = ++) | +++ (60% to 80% inhibition = +++) | 20 to 40 | + (20% to 40% inhibition = +) | 429
